Source: patent US20200270309A1, “MALEIMIDE GROUP-MODIFIED ANGIOGENESIS INHIBITOR HM-1 AND USE THEREOF” (NANJING ANJI BIOLOGICAL TECHNOLOGY CO., LTD, priority 2017, published 2020)
Marks after values point to notes of the source that are not given here. Peptide text beside a SMILES is read from it. * marks the point of attachment. X84 = O=C1C=CC(=O)N1c1ccccc1CCCCCCCCCCCCC(=O)*

What was measured:
[1] = Half-lives and pharmacokinetic parameters of polypeptides vs HM-1; details: in vivo
HUVECs = test: Transwell migration inhibition on HUVECs; type: cell-based, human; details: for Inhibition rate (%): HUVEC migration vs blank control; for Cell migration number (Mean ± SD): HUVECs, transwell, 24 h
[2] = test system: xylene-induced ear swelling; test: Xylene-induced mouse ear swelling; type: in vivo; details: Kunming mice, injected once a day for 5 days; for Inhibition rate (%): xylene-induced ear swelling
Procedure, shortened: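 Kunming mice dosed by injection once daily for 5 days; 1 h after last dose, 0.05 mL xylene applied to right ear, left ear untreated. Mice killed 2 h later; punched ear pieces weighed. Swelling degree = right minus left ear weight; swelling rate = swelling degree/left ear weight ×100%.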

[3] = test system: collagen-induced arthritis; test: Mouse collagen-induced arthritis (CIA) animal model; type: in vivo; details: DBA/1 mice CIA model, dose 4.0 mg/kg, subcutaneous from day 30, n=10
[4] = test system: carrageenan-induced toe swelling; test: Carrageenan-induced toe swelling in rats; type: in vivo; details: SD rats; for Swelling degree 1 h: 1 h after carrageenan; for Swelling degree 3 h: 3 h after carrageenan; for Swelling degree 5 h: 5 h after carrageenan; for Swelling degree 7 h: 7 h after carrageenan
Procedure, shortened: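 Rats dosed by injection once daily for 3 d, controls given equal-volume saline. Right hind paw volume measured by water displacement to a marked joint line; swelling degree (mL) is paw volume after carrageenan inflammation minus volume before.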

[5] = test system: human retinal capillary endothelial cells (HRCECs); test: MTT proliferation inhibition on HRCECs; type: cell-based; details: 48 h; for A570 nm-A630 nm: mean±SD
Procedure, shortened: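 HRCECs seeded at 3.0×10^4 cells/mL, adhered overnight, then exposed to polypeptide for 48 h at 37 °C, 5% CO2. MTT added 4 h, formazan dissolved in DMSO, absorbance 570/630 nm; PIR (%) = 1 − treated/negative control, mean±SD of three independent runs.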

[6] = test system: corneal neovascularization; test: Corneal neovascularization induced by alkali burn in BALB/c mice; type: in vivo; parameters: Inhibition rate (corneal neovascularization): concentration or dose not given beside the values; details: day 14 after alkali burn, vitreous injection once a day for 1 week
[7] = test system: choroidal neovascularization; test: Choroidal neovascularization in rats (laser photocoagulation, FFA); type: in vivo; details: BN rats
Procedure, shortened: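 Male BN rats aged 6-8 weeks were given 8 krypton-laser spots around the optic disc (647.1 nm, 350 mW, 50 μm, 0.05 s). Once the model was confirmed, groups of 5 got daily intravitreal compound at 0.05 μM or saline for 1 week. FFA followed at 3, 7, 14 and 28 days after dosing.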

[8] = day 3 after administration, total light spot number was 297, 0.05 μM in the vitreous chamber once a day for 1 week
[9] = day 7 after administration, total light spot number was 186, 0.05 μM in the vitreous chamber once a day for 1 week
[10] = day 14 after administration, total light spot number was 137, 0.05 μM in the vitreous chamber once a day for 1 week
[11] = day 28 after administration, total light spot number was 69, 0.05 μM in the vitreous chamber once a day for 1 week

- AUC(0-inf) [1]: 29700 ± 7580 ng·h/mL
- MRT inf [1]: 53.1 ± 13.5 h
- clearance [1]: 0.562 mL/min/kg
- half-life ([1]; T1/2β (half-life)): 36.77 ± 0.29 h
Compound: C[C@H](NC(=O)CNC(=O)[C@H](CCCNC(=N)N)NC(=O)CCCCCCCCCCCCc1ccccc1N1C(=O)C=CC1=O)C(=O)N[C@@H](CC(=O)O)C(=O)N[C@@H](CCCNC(=N)N)C(=O)N[C@@H](C)C(=O)NCC(=O)NCC(=O)NCC(=O)NCC(=O)N[C@@H](CCCNC(=N)N)C(=O)NCC(=O)N[C@@H](CC(=O)O)C(=O)O [X24] (X84-RGADRAGGGGRGD-OH)
- Inhibition rate (%) (HUVECs; dose 0.05 μM): 49.57%
- Inhibition rate (%) (HUVECs; dose 0.1 μM): 49.95%
- Inhibition rate (%) (HUVECs; dose 0.2 μM): 51.01%
- Cell migration number (Mean ± SD) (HUVECs; dose 0.05 μM): 540.49 ± 60.98
- Cell migration number (Mean ± SD) (HUVECs; dose 0.1 μM): 536.51 ± 42.41
- Cell migration number (Mean ± SD) (HUVECs; dose 0.2 μM): 525.06 ± 53.33
- Swelling degree ([2]; dose 2 mg/kg, right minus left ear piece weight 2 h after xylene): 5.25 ± 0.06 mg
- Inhibition rate (%) ([2]; dose 2 mg/kg): 15.73%
- Swelling degree (mg) ([2]; dose 4 mg/kg, right minus left ear piece weight 2 h after xylene): 4.98 ± 0.19* mg
- Inhibition rate (%) ([2]; dose 4 mg/kg): 20.06%
- Swelling degree (mg) ([2]; dose 8 mg/kg, right minus left ear piece weight 2 h after xylene): 4.34 ± 0.68** mg
- Inhibition rate (%) ([2]; dose 8 mg/kg): 30.34%
- Joint swelling degree (mm) [3]: 0.82 ± 0.11 mm
- Left and right paw swelling degree (mm) [3]: 0.71 ± 0.12 mm
- Clinical score ([3]; highest score 16): 8.94 ± 1.41
- Swelling degree 1 h ([4]; 2.0 mg/kg once a day for 3 d): 0.24 ± 0.16 mg
- Swelling degree 3 h ([4]; 2.0 mg/kg once a day for 3 d): 0.34 ± 0.18 mg
- Swelling degree 5 h ([4]; 2.0 mg/kg once a day for 3 d): 0.43 ± 0.12 mg
- Swelling degree 7 h ([4]; 2.0 mg/kg once a day for 3 d): 0.38 ± 0.13 mg
- Swelling degree 1 h ([4]; 4.0 mg/kg once a day for 3 d): 0.23 ± 0.17 mg
- Swelling degree 3 h ([4]; 4.0 mg/kg once a day for 3 d): 0.35 ± 0.13 mg
- Swelling degree 5 h ([4]; 4.0 mg/kg once a day for 3 d): 0.38 ± 0.16 mg
- Swelling degree 7 h ([4]; 4.0 mg/kg once a day for 3 d): 0.32 ± 0.12 mg
- Inhibition rate (%) ([5]; dose 0.05 μM): 40.01%*
- A570 nm-A630 nm ([5]; dose 0.05 μM): 0.7929 ± 0.02399
- Inhibition rate (%) ([5]; dose 0.1 μM): 44.87%**
- A570 nm-A630 nm ([5]; dose 0.1 μM): 0.7286 ± 0.00571
- Inhibition rate (%) ([5]; dose 0.2 μM): 49.60%*
- A570 nm-A630 nm ([5]; dose 0.2 μM): 0.6661 ± 0.02372
- Inhibition rate (corneal neovascularization) [6]: 46.24%
- MVD (corneal microvessel density) [6]: 36.15 ± 4.199
- CNV Incidence (%) [7, 8]: 54.21%
- Leakage Light spot number [7, 8]: 161
- CNV Incidence (%) [7, 9]: 49.46%
- Leakage Light spot number [7, 9]: 92
- CNV Incidence (%) [7, 10]: 45.99%
- Leakage Light spot number [7, 10]: 63
- CNV Incidence (%) [7, 11]: 44.93%
- Leakage Light spot number [7, 11]: 31
